According to PubChem BioAssay AID1259407 (Chemical Carcinogenesis Research Information System (CCRIS), 2018):
Activity calls are given as the source filed them. How the calls were made is not given here.

Test system: CCRIS mutagenicity, Ames/micronucleus/aberration tests
Test: CCRIS mutagenicity studies
[1] = Test System: AMES SALMONELLA TYPHIMURIUM, Strain/Indicator: TA98, Metabolic Activation: NONE, Method: STANDARD PLATE
[2] = Test System: AMES SALMONELLA TYPHIMURIUM, Strain/Indicator: TA98, Metabolic Activation: RAT, LIVER, S-9, AROCLOR 1254, Method: STANDARD PLATE
[3] = Test System: AMES SALMONELLA TYPHIMURIUM, Strain/Indicator: TA100, Metabolic Activation: NONE, Method: STANDARD PLATE
[4] = Test System: AMES SALMONELLA TYPHIMURIUM, Strain/Indicator: TA100, Metabolic Activation: RAT, LIVER, S-9, AROCLOR 1254, Method: STANDARD PLATE
[5] = Test System: AMES SALMONELLA TYPHIMURIUM, Strain/Indicator: TA1535, Metabolic Activation: NONE, Method: STANDARD PLATE
[6] = Test System: AMES SALMONELLA TYPHIMURIUM, Strain/Indicator: TA1535, Metabolic Activation: RAT, LIVER, S-9, AROCLOR 1254, Method: STANDARD PLATE
[7] = Test System: AMES SALMONELLA TYPHIMURIUM, Strain/Indicator: TA1537, Metabolic Activation: NONE, Method: STANDARD PLATE
[8] = Test System: AMES SALMONELLA TYPHIMURIUM, Strain/Indicator: TA1537, Metabolic Activation: RAT, LIVER, S-9, AROCLOR 1254, Method: STANDARD PLATE
[9] = Test System: AMES SALMONELLA TYPHIMURIUM, Strain/Indicator: TA1538, Metabolic Activation: NONE, Method: STANDARD PLATE
[10] = Test System: AMES SALMONELLA TYPHIMURIUM, Strain/Indicator: TA1538, Metabolic Activation: RAT, LIVER, S-9, AROCLOR 1254, Method: STANDARD PLATE

In the case of `O=C1c2ccccc2CCc2ccccc21`, the mutagenic call (Test System: AMES SALMONELLA TYPHIMURIUM, Strain/Indicator: TA98, Metabolic Activation: HAMSTER, LIVER, S-9, AROCLOR 1254, Method: STANDARD PLATE) is reported as “inactive; negative”, the mutagenic call [1] is reported as “inactive; negative” and the mutagenic call [2] is reported as “inactive; negative”. For the same compound, the mutagenic call (Test System: AMES SALMONELLA TYPHIMURIUM, Strain/Indicator: TA100, Metabolic Activation: HAMSTER, LIVER, S-9, AROCLOR 1254, Method: STANDARD PLATE) was “inactive; negative”, the mutagenic call [3] was “inactive; negative” and the mutagenic call [4] was “inactive; negative”. The mutagenic call (Test System: AMES SALMONELLA TYPHIMURIUM, Strain/Indicator: TA1535, Metabolic Activation: HAMSTER, LIVER, S-9, AROCLOR 1254, Method: STANDARD PLATE) was “inactive; negative”, the mutagenic call [5] was “inactive; negative” and the mutagenic call [6] was “inactive; negative”. For the same compound, the mutagenic call (Test System: AMES SALMONELLA TYPHIMURIUM, Strain/Indicator: TA1537, Metabolic Activation: HAMSTER, LIVER, S-9, AROCLOR 1254, Method: STANDARD PLATE) was “inactive; negative”, the mutagenic call [7] was “inactive; negative” and the mutagenic call [8] was “inactive; negative”. The mutagenic call (Test System: AMES SALMONELLA TYPHIMURIUM, Strain/Indicator: TA1538, Metabolic Activation: HAMSTER, LIVER, S-9, AROCLOR 1254, Method: STANDARD PLATE) was “inactive; negative”, the mutagenic call [9] was “inactive; negative” and the mutagenic call [10] was “inactive; negative”. For the same compound, the mutagenic call (Test System: MOUSE LYMPHOMA, Strain/Indicator: L5178Y (TK+/TK-), Metabolic Activation: NONE, Method: SUSPENSION/PLATE) was “inactive; negative. reevaluation of results: negative” and the mutagenic call (Test System: MOUSE LYMPHOMA, Strain/Indicator: L5178Y (TK+/TK-), Metabolic Activation: RAT, LIVER, S-9, AROCLOR 1254, Method: SUSPENSION/PLATE) was “inactive; negative. reevaluation of results: negative”.
With `O=[N+]([O-])c1ccc(Nc2ncnc3c2ncn3-c2ccc([N+](=O)[O-])cc2)cc1` the mutagenic call (Test System: AMES SALMONELLA TYPHIMURIUM, Strain/Indicator: TA98(1,8-DNP), Metabolic Activation: NONE, Method: PREINCUBATION) was “inactive; negative”, the mutagenic call (Test System: AMES SALMONELLA TYPHIMURIUM, Strain/Indicator: TA98(1,8-DNP), Metabolic Activation: RAT, LIVER, S-9, PCB, Method: PREINCUBATION) was “inactive; negative” and the mutagenic call (Test System: AMES SALMONELLA TYPHIMURIUM, Strain/Indicator: TA98(NR), Metabolic Activation: NONE, Method: PREINCUBATION) was “inactive; negative”. The mutagenic call (Test System: AMES SALMONELLA TYPHIMURIUM, Strain/Indicator: TA98(NR), Metabolic Activation: RAT, LIVER, S-9, PCB, Method: PREINCUBATION) was “inactive; negative”, the mutagenic call (Test System: AMES SALMONELLA TYPHIMURIUM, Strain/Indicator: TA98, Metabolic Activation: NONE, Method: PREINCUBATION) was “inactive; negative” and the mutagenic call (Test System: AMES SALMONELLA TYPHIMURIUM, Strain/Indicator: TA98, Metabolic Activation: RAT, LIVER, S-9, PCB, Method: PREINCUBATION) was “inactive; negative”. For the same compound, the mutagenic call (Test System: AMES SALMONELLA TYPHIMURIUM, Strain/Indicator: TA100(1,8-DNP), Metabolic Activation: NONE, Method: PREINCUBATION) was “inactive; negative”, the mutagenic call (Test System: AMES SALMONELLA TYPHIMURIUM, Strain/Indicator: TA100(1,8-DNP), Metabolic Activation: RAT, LIVER, S-9, PCB, Method: PREINCUBATION) was “inactive; negative” and the mutagenic call (Test System: AMES SALMONELLA TYPHIMURIUM, Strain/Indicator: TA100(NR), Metabolic Activation: NONE, Method: PREINCUBATION) was “inactive; negative”. The mutagenic call (Test System: AMES SALMONELLA TYPHIMURIUM, Strain/Indicator: TA100(NR), Metabolic Activation: RAT, LIVER, S-9, PCB, Method: PREINCUBATION) was “inactive; negative”, the mutagenic call (Test System: AMES SALMONELLA TYPHIMURIUM, Strain/Indicator: TA100, Metabolic Activation: NONE, Method: PREINCUBATION) was “inactive; negative” and the mutagenic call (Test System: AMES SALMONELLA TYPHIMURIUM, Strain/Indicator: TA100, Metabolic Activation: RAT, LIVER, S-9, PCB, Method: PREINCUBATION) was “inactive; negative”. For the same compound, the mutagenic call (Test System: AMES SALMONELLA TYPHIMURIUM, Strain/Indicator: YG1020, Metabolic Activation: NONE, Method: PREINCUBATION) was “inactive; negative”, the mutagenic call (Test System: AMES SALMONELLA TYPHIMURIUM, Strain/Indicator: YG1020, Metabolic Activation: RAT, LIVER, S-9, PCB, Method: PREINCUBATION) was “inactive; negative” and the mutagenic call (Test System: AMES SALMONELLA TYPHIMURIUM, Strain/Indicator: YG1021, Metabolic Activation: RAT, LIVER, S-9, PCB, Method: PREINCUBATION) was “active; positive”. For the same compound, the mutagenic call (Test System: AMES SALMONELLA TYPHIMURIUM, Strain/Indicator: YG1024, Metabolic Activation: RAT, LIVER, S-9, PCB, Method: PREINCUBATION) was “inactive; negative”, the mutagenic call (Test System: AMES SALMONELLA TYPHIMURIUM, Strain/Indicator: YG1025, Metabolic Activation: NONE, Method: PREINCUBATION) was “inactive; negative” and the mutagenic call (Test System: AMES SALMONELLA TYPHIMURIUM, Strain/Indicator: YG1025, Metabolic Activation: RAT, LIVER, S-9, PCB, Method: PREINCUBATION) was “inactive; negative”. For the same compound, the mutagenic call (Test System: AMES SALMONELLA TYPHIMURIUM, Strain/Indicator: YG1026, Metabolic Activation: NONE, Method: PREINCUBATION) was “inactive; negative”, the mutagenic call (Test System: AMES SALMONELLA TYPHIMURIUM, Strain/Indicator: YG1026, Metabolic Activation: RAT, LIVER, S-9, PCB, Method: PREINCUBATION) was “inactive; negative” and the mutagenic call (Test System: AMES SALMONELLA TYPHIMURIUM, Strain/Indicator: YG1029, Metabolic Activation: NONE, Method: PREINCUBATION) was “inactive; negative”. The mutagenic call (Test System: AMES SALMONELLA TYPHIMURIUM, Strain/Indicator: YG1029, Metabolic Activation: RAT, LIVER, S-9, PCB, Method: PREINCUBATION) was “inactive; negative”.
`COc1cccc2c1C(=O)c1c(O)c3c(c(O)c1C2=O)C[C@@](O)(C(C)=O)C[C@@H]3O[C@@H]1C[C@@H](N(C)C)[C@@H](O)[C@@H](C)O1` was tested, and the mutagenic call (Test System: AMES SALMONELLA TYPHIMURIUM, Strain/Indicator: TA102, Metabolic Activation: NONE, Method: STANDARD PLATE) was “active; positive”.
For `O=C([O-])[C@H](O)[C@@H](O)[C@H](O)[C@H](O)CO.O=C([O-])[C@H](O)[C@@H](O)[C@H](O)[C@H](O)CO.[Mn+2]`, the mutagenic call [1] was “inactive; negative”, the mutagenic call [2] was “inactive; negative” and the mutagenic call [3] was “inactive; negative”. The mutagenic call [4] was “inactive; negative”, the mutagenic call [5] was “inactive; negative” and the mutagenic call [6] was “inactive; negative”. The mutagenic call [7] was “inactive; negative”, the mutagenic call [8] was “inactive; negative” and the mutagenic call [9] was “inactive; negative”. For the same compound, the mutagenic call [10] was “inactive; negative”, the mutagenic call (Test System: E. COLI, Strain/Indicator: WP2, Metabolic Activation: NONE, Method: STANDARD PLATE) was “inactive; negative” and the mutagenic call (Test System: E. COLI, Strain/Indicator: WP2, Metabolic Activation: RAT, LIVER, S-9, AROCLOR 1254, Method: STANDARD PLATE) was “inactive; negative”.
